Read-outs that look alike come from different tables or passages of the source.
Key:
[1] = tested on: HL-60(TB)
[2] = tested on: CCRF-CEM; assay: panel of 60 human tumor cell lines, growth inhibition (Leukemia)
[3] = tested on: MOLT-4; assay: as above; details: MOLT-4
[4] = tested on: LOX IMVI; assay: panel of 60 human tumor cell lines, growth inhibition (Melanoma)
[5] = tested on: SK-MEL-2; assay: as above; details: SK-MEL-2
[6] = tested on: SK-MEL-5; assay: as above; details: 8K-MEL-5
[7] = tested on: HCC-2998; assay: panel of 60 human tumor cell lines, growth inhibition (Colon Cancer); details: HCC-2998
[8] = tested on: HCT-15; assay: as above; details: HCT-15
[9] = tested on: CAKI-1; assay: panel of 60 human tumor cell lines, growth inhibition (Renal Cancer); details: CAKI-1
[10] = tested on: RXF 393; assay: as above; details: RXF 393
[11] = tested on: SN12C; assay: as above
[12] = tested on: MCF7; assay: panel of 60 human tumor cell lines, growth inhibition (Breast Cancer); details: MCF7
[13] = tested on: MDA-MB-231/ATCC; assay: as above; details: MDA-MB-231/ATCC
[14] = tested on: SK-OV-3; assay: panel of 60 human tumor cell lines, growth inhibition (Ovarian Cancer); details: SK-OV-3
[15] = tested on: DU-145; assay: panel of 60 human tumor cell lines, growth inhibition (Prostate Cancer); details: DU-145
[16] = tested on: HOP-62; assay: panel of 60 human tumor cell lines, growth inhibition (Non-Small Cell Lung Cancer); details: HOP-62
[17] = tested on: HOP-92; assay: as above; details: HOP-92
[18] = tested on: NCI-H226; assay: as above; details: NCI-H226
[19] = tested on: NCI-H460; assay: as above; details: NCI-H460

For `C=C1C(=O)O[C@H]2[C@H]1CC/C(COC(=O)CCC(=O)N1CCC(C)CC1)=C\CC[C@@]1(C)O[C@@H]21` [JVM 2-70], the “Percent Growth” value ([1]; Log10 Concentration −4.0) was −59%, the “Percent Growth” value ([1]; Log10 Concentration −5.0) was −12% and the “Percent Growth” value ([1]; Log10 Concentration −6.0) was 112%. The “Percent Growth” value ([1]; Log10 Concentration −7.0) was 111%, the “Percent Growth” value ([1]; Log10 Concentration −8.0) was 110% and the GI50 ([1]; NCI five dose) was 3.16 µM. The TGI ([1]; NCI five dose) was 7.96E−6, the CC50 ([1]; read-out: LC50, NCI five dose) was 63.1 µM and the “Percent Growth” value ([2]; Log10 Concentration −4.0) was −56%. For the same compound, the “Percent Growth” value ([2]; Log10 Concentration −5.0) was −32%, the “Percent Growth” value ([2]; Log10 Concentration −6.0) was 64% and the “Percent Growth” value ([2]; Log10 Concentration −7.0) was 92%. For the same compound, the “Percent Growth” value ([2]; Log10 Concentration −8.0) was 98%, the GI50 ([2]; NCI five dose) was 1.4 µM and the TGI ([2]; NCI five dose) was 4.68E−6. The “Percent Growth” value ([3]; Log10 Concentration −4.0) was −49%, the “Percent Growth” value ([3]; Log10 Concentration −5.0) was −9% and the “Percent Growth” value ([3]; Log10 Concentration −6.0) was 115%. For the same compound, the “Percent Growth” value ([3]; Log10 Concentration −7.0) was 119%, the “Percent Growth” value ([3]; Log10 Concentration −8.0) was 110% and the GI50 ([3]; NCI five dose) was 3.33 µM. For the same compound, the TGI ([3]; NCI five dose) was 8.45E−6, the “Percent Growth” value ([4]; Log10 Concentration −4.0) was −84% and the “Percent Growth” value ([4]; Log10 Concentration −5.0) was 4%. The “Percent Growth” value ([4]; Log10 Concentration −6.0) was 91%, the “Percent Growth” value ([4]; Log10 Concentration −7.0) was 96% and the “Percent Growth” value ([4]; Log10 Concentration −8.0) was 96%. For the same compound, the GI50 ([4]; NCI five dose) was 2.95 µM, the TGI ([4]; NCI five dose) was 1.10E−5 and the “Percent Growth” value ([5]; Log10 Concentration −4.0) was −82%. For the same compound, the “Percent Growth” value ([5]; Log10 Concentration −5.0) was 68%, the “Percent Growth” value ([5]; Log10 Concentration −6.0) was 108% and the “Percent Growth” value ([5]; Log10 Concentration −7.0) was 112%. The “Percent Growth” value ([5]; Log10 Concentration −8.0) was 106%, the GI50 ([5]; NCI five dose) was 13.1 µM and the TGI ([5]; NCI five dose) was 2.83E−5. For the same compound, the “Percent Growth” value ([6]; Log10 Concentration −4.0) was −93%, the “Percent Growth” value ([6]; Log10 Concentration −5.0) was 42% and the “Percent Growth” value ([6]; Log10 Concentration −6.0) was 96%. The “Percent Growth” value ([6]; Log10 Concentration −7.0) was 99%, the “Percent Growth” value ([6]; Log10 Concentration −8.0) was 98% and the GI50 ([6]; NCI five dose) was 7.17 µM. For the same compound, the TGI ([6]; NCI five dose) was 2.05E−5, the “Percent Growth” value ([7]; Log10 Concentration −4.0) was −80% and the “Percent Growth” value ([7]; Log10 Concentration −5.0) was 59%. The “Percent Growth” value ([7]; Log10 Concentration −6.0) was 110%, the “Percent Growth” value ([7]; Log10 Concentration −7.0) was 103% and the “Percent Growth” value ([7]; Log10 Concentration −8.0) was 106%. For the same compound, the GI50 ([7]; NCI five dose) was 11.5 µM, the TGI ([7]; NCI five dose) was 2.65E−5 and the “Percent Growth” value ([8]; Log10 Concentration −4.0) was −70%. For the same compound, the “Percent Growth” value ([8]; Log10 Concentration −5.0) was −29%, the “Percent Growth” value ([8]; Log10 Concentration −6.0) was 74% and the “Percent Growth” value ([8]; Log10 Concentration −7.0) was 91%. The “Percent Growth” value ([8]; Log10 Concentration −8.0) was 90%, the GI50 ([8]; NCI five dose) was 1.7 µM and the TGI ([8]; NCI five dose) was 5.22E−6. For the same compound, the “Percent Growth” value ([9]; Log10 Concentration −4.0) was −93%, the “Percent Growth” value ([9]; Log10 Concentration −5.0) was 4% and the “Percent Growth” value ([9]; Log10 Concentration −6.0) was 88%. The “Percent Growth” value ([9]; Log10 Concentration −7.0) was 95%, the “Percent Growth” value ([9]; Log10 Concentration −8.0) was 90% and the GI50 ([9]; NCI five dose) was 2.83 µM. The TGI ([9]; NCI five dose) was 1.11E−5, the “Percent Growth” value ([10]; Log10 Concentration −4.0) was −88% and the “Percent Growth” value ([10]; Log10 Concentration −5.0) was −54%. For the same compound, the “Percent Growth” value ([10]; Log10 Concentration −6.0) was 91%, the “Percent Growth” value ([10]; Log10 Concentration −7.0) was 101% and the “Percent Growth” value ([10]; Log10 Concentration −8.0) was 105%. The GI50 ([10]; NCI five dose) was 1.91 µM, the TGI ([10]; NCI five dose) was 4.24E−6 and the “Percent Growth” value ([11]; Log10 Concentration −4.0) was −82%. For the same compound, the “Percent Growth” value ([11]; Log10 Concentration −5.0) was 30%, the “Percent Growth” value ([11]; Log10 Concentration −6.0) was 92% and the “Percent Growth” value ([11]; Log10 Concentration −7.0) was 93%. For the same compound, the “Percent Growth” value ([11]; Log10 Concentration −8.0) was 97%, the GI50 ([11]; NCI five dose) was 4.8 µM and the TGI ([11]; NCI five dose) was 1.86E−5. For the same compound, the “Percent Growth” value ([12]; Log10 Concentration −4.0) was −63%, the “Percent Growth” value ([12]; Log10 Concentration −5.0) was 4% and the “Percent Growth” value ([12]; Log10 Concentration −6.0) was 74%. The “Percent Growth” value ([12]; Log10 Concentration −7.0) was 88%, the “Percent Growth” value ([12]; Log10 Concentration −8.0) was 83% and the GI50 ([12]; NCI five dose) was 2.22 µM. The TGI ([12]; NCI five dose) was 1.16E−5, the “Percent Growth” value ([13]; Log10 Concentration −4.0) was −85% and the “Percent Growth” value ([13]; Log10 Concentration −5.0) was 41%. The “Percent Growth” value ([13]; Log10 Concentration −6.0) was 102%, the “Percent Growth” value ([13]; Log10 Concentration −7.0) was 97% and the “Percent Growth” value ([13]; Log10 Concentration −8.0) was 105%. The GI50 ([13]; NCI five dose) was 7.13 µM, the TGI ([13]; NCI five dose) was 2.12E−5 and the “Percent Growth” value ([14]; Log10 Concentration −4.0) was −10%. For the same compound, the “Percent Growth” value ([14]; Log10 Concentration −5.0) was 95%, the “Percent Growth” value ([14]; Log10 Concentration −6.0) was 99% and the “Percent Growth” value ([14]; Log10 Concentration −7.0) was 101%. The “Percent Growth” value ([14]; Log10 Concentration −8.0) was 92%, the GI50 ([14]; NCI five dose) was 26.8 µM and the TGI ([14]; NCI five dose) was 8.06E−5. For the same compound, the “Percent Growth” value ([15]; Log10 Concentration −4.0) was −89%, the “Percent Growth” value ([15]; Log10 Concentration −5.0) was 26% and the “Percent Growth” value ([15]; Log10 Concentration −6.0) was 95%. The “Percent Growth” value ([15]; Log10 Concentration −7.0) was 106%, the “Percent Growth” value ([15]; Log10 Concentration −8.0) was 107% and the GI50 ([15]; NCI five dose) was 4.44 µM. The TGI ([15]; NCI five dose) was 1.68E−5, the “Percent Growth” value ([16]; Log10 Concentration −4.0) was −68% and the “Percent Growth” value ([16]; Log10 Concentration −5.0) was 78%. The “Percent Growth” value ([16]; Log10 Concentration −6.0) was 91%, the “Percent Growth” value ([16]; Log10 Concentration −7.0) was 92% and the “Percent Growth” value ([16]; Log10 Concentration −8.0) was 86%. The GI50 ([16]; NCI five dose) was 15.5 µM, the TGI ([16]; NCI five dose) was 3.41E−5 and the “Percent Growth” value ([17]; Log10 Concentration −4.0) was −91%. The “Percent Growth” value ([17]; Log10 Concentration −5.0) was 3%, the “Percent Growth” value ([17]; Log10 Concentration −6.0) was 71% and the “Percent Growth” value ([17]; Log10 Concentration −7.0) was 83%. The “Percent Growth” value ([17]; Log10 Concentration −8.0) was 87%, the GI50 ([17]; NCI five dose) was 2.05 µM and the TGI ([17]; NCI five dose) was 1.07E−5. The “Percent Growth” value ([18]; Log10 Concentration −4.0) was −59%, the “Percent Growth” value ([18]; Log10 Concentration −5.0) was 19% and the “Percent Growth” value ([18]; Log10 Concentration −6.0) was 87%. For the same compound, the “Percent Growth” value ([18]; Log10 Concentration −7.0) was 93%, the “Percent Growth” value ([18]; Log10 Concentration −8.0) was 92% and the GI50 ([18]; NCI five dose) was 3.51 µM. The TGI ([18]; NCI five dose) was 1.75E−5, the “Percent Growth” value ([19]; Log10 Concentration −4.0) was −57% and the “Percent Growth” value ([19]; Log10 Concentration −5.0) was 77%. The “Percent Growth” value ([19]; Log10 Concentration −6.0) was 99%, the “Percent Growth” value ([19]; Log10 Concentration −7.0) was 101% and the “Percent Growth” value ([19]; Log10 Concentration −8.0) was 100%. For the same compound, the GI50 ([19]; NCI five dose) was 16 µM and the TGI ([19]; NCI five dose) was 3.76E−5.

— patent publication US9469650B2, “Melampomagnolide B derivatives” (BOARD OF TRUSTEES OF THE UNIVERSITY OF ARKANSAS, priority 2013, dated 2016)
